Assay results taken from patent US7157256B2, “Method for producing para-hydroxystyrene and other multifunctional aromatic compounds using two-phase extractive fermentation” (E. I. du Pont de Nemours and Company, priority 2003, dated 2007).
Several values for one entry are separate records, joined by “and”; a condition that tells them apart may be missing. Equal entries are not always repeated.

Legend:
Format in all cases: cell-based
E. coli TY1 (DGL430) = assay: Effect of pHCA and pHS on growth and fermentation of E. coli, shake flasks; details: E. coli TY1 shake flask
Experimental: This study was done using E. coli TY1 (DGL430), a tyrosine overproducing strain obtained from OmniGene Bioproducts, Inc. (Cambridge, Mass.). This strain also produces phenylalanine. The seed culture of this strain was propagated in a medium consisting of MgSO4.7H2O (0.5 g/L), (NH4)2SO4 (4 g/L), MOPS (20.9 g/L) and 10 mL of phosphate solution. The pH of the seed medium was adjusted to pH 6.8 and then the medium was steam-sterilized. The phosphate solution contained KH2PO4 (57.3 g/L) and K2HPO4 (110.2 g/L) and was adjusted to pH 6.8. The following solutions were then aseptically added to the seed medium to give the final concentration given in parentheses: thiamine (1 mg/L), glucose (1 g/L), lactose (15 g/L), 5 mL of a trace element solution, and tetracycline (5 mg/L). The trace element solution contained citric acid (10 g/L), CaCl2.2H2O (1.5 g/L), FeSO4.7H2O (5 g/L), ZnSO4.7H2O (0.39 g/L) and CuSO4.5H2O (0.38 g/L). The seed medium was inoculated from a frozen pre-seed culture and was grown in 250 mL baffled flasks in an Innova 4000 incubator shaker (New Brunswick Scientific Co., Edison, N.J.), incubated at 35° C. and 300 rpm for 12–16 h. One milliliter of this seed culture was used to inoculate each of the test cultures.
The test medium was 50 mL of an aqueous solution containing: (NH4)2SO4 (4 g), 1 mL of phosphate solution, MgSO4.7H2O (0.5 g), and MOPS (20.9 g), with the pH adjusted to 7.0. After sterilization of this medium, thiamine (1 mg/L), 5 mL of trace element solution, glucose (2 g/L), lactose (15 g/L), IPTG (0.5 mM), and tetracycline (10 mg/L) were aseptically added to give the final concentration given in parentheses. The 250 mL baffled flasks containing 50 mL of the test medium were inoculated with the seed culture and were incubated at 35° C. and 300 rpm for 42 h in the incubator shaker. Samples of the culture were taken at various times and the optical density at 550 nm (OD550) was measured spectrophotometrically. The pH of these samples was also measured. After completion of the fermentation, the tyrosine and phenylalanine concentrations in the culture were measured using HPLC, as described supra.
This experiment was repeated using pHS in place of pHCA.

E. coli WWQ51.1 = assay: Growth of E. coli with added pHS in two-phase fermentation; details: 0.5 mL pHS (10% w/v) added; 20 mL 2-Undecanone; IPTG 0.5 mM
Experimental: The strain used in this study was E. coli WWQ51.1, as described in Example 3. The conditions were similar to those described in Example 3. Eight test cultures were inoculated; six contained 20 mL of 2-undecanone, the other two contained 20 mL of 1-undecanol. A 10% w/v solution of pHS in propylene glycol (0.5 mL), obtained from Sigma-Aldrich, Milwaukee, Wis., was added to two of the cultures containing 2-undecanone, as specified in Table 7.
The cultures were incubated in 250 mL baffled flasks at 35° C. and 300 rpm for 24 h in an incubator shaker. After this time, a sample of the aqueous phase was withdrawn and the pH, OD550, and the concentration of the fermentation products were measured, as described supra. The organic phase was also sampled and the concentration of CA and pHS were determined using HPLC, as described supra.

[1] = tested on: P. putida strain S12 (ATCC No. 700801); assay: Effect of pHS on the growth of Pseudomonas putida; details: for Growth Rate, %: percentage of growth without pHS
Experimental: This study was done using P. putida strain S12 (ATCC No. 700801), obtained from the American Type Culture Collection. This P. putida strain was grown at 30° C. in 20 mL of LB medium containing 0.25% glucose and 10 mM MgSO4 in a 125 mL baffled flask until stationary phase was achieved. Aliquots from this stationary phase culture were plated on LB agar plates containing 0.25% glucose, 10 mM MgSO4, and 1 g/L pHS, and incubated at 30° C. for several days. Colonies from these plates were streaked on identical plates and grown as described above. An individual colony from these plates was used to inoculate 20 mL of liquid LB medium containing 0.5% glucose, 10 mM MgSO4 and 1 g/L pHS. This culture was grown in a 125 mL baffled flask at 30° C. and 200 rpm in an incubator shaker until stationary phase was achieved. These stationary phase cells (0.5 mL) were added to 20 mL of a test medium consisting of LB medium, 0.5% glucose, 10 mM MgSO4 and either 0, 1.0, or 1.25 g/L pHS. These cultures were grown in 125 mL baffled flasks at 30° C. and 200 rpm in an incubator shaker. Cell growth in these cultures was monitored by taking aliquots, diluting them with an equal volume of 1,2-propanediol, and measuring the OD at 600 nm. These OD measurements were used to calculate the doubling time and growth rate as a percentage of growth observed in the test medium without pHS.

For `C=Cc1ccc(O)cc1` [pHS, para-hydroxystyrene], the “concentration at which complete inhibition of growth / no growth was observed” value (E. coli TY1 (DGL430)) was 0.4 g/L, the “concentration that inhibited cell growth” value (E. coli TY1 (DGL430)) was 0.2 g/L and the “OD550 24 h” value (E. coli WWQ51.1) was 15.7 and 12.5. The “Doubling Time” value ([1]; pHS 1.0 g/L, pHS-adapted cells, LB medium, 30° C.) was 118 min, the “Growth Rate, %” value ([1]; pHS 1.0 g/L) was 85% and the “Doubling Time” value ([1]; pHS 1.25 g/L) was 111 min. The “Growth Rate, %” value ([1]; pHS 1.25 g/L) was 90%.
